From patent US9951065B2 (Gilead Sciences, Inc., priority 2015, dated 2018)
pEC50: −log10 of the molar value.

Each compound was assayed against T1, IDO1 (Homo sapiens, UniProt P14902) (assay: Cell-based (HeLa) assay for measurement of IDO1 inhibition (kynurenine levels in supernatant after IFNγ induction)). Settings: HeLa cells, IFNγ-induced IDO1, kynurenine in supernatant after 48 hour incubation; geometric mean of a minimum of four determinations.
T1 construct: HeLa cells were treated with a test compound in the presence of IFNγ, which induces IDO1 expression; host or cells: H1-HeLa cells, IDO1 induced with IFNγ
T1 sequence (P14902 whole entry): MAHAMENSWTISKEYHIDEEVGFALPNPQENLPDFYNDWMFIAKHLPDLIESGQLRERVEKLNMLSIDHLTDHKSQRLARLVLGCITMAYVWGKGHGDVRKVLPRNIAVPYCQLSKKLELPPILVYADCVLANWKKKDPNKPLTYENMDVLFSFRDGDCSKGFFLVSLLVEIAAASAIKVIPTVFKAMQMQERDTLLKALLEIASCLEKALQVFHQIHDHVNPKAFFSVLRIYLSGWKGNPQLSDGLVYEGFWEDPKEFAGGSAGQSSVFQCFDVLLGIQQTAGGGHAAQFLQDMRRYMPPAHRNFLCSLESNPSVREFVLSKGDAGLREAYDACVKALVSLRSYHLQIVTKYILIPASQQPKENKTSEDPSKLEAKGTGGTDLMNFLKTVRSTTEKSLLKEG
In short: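 HeLa cells, 1,250 per well, treated with compound (0.5% DMSO final) plus IFNγ to induce IDO1, for 48 h. Supernatant kynurenine measured by TCA hydrolysis at 60 °C, then p-dimethylaminobenzaldehyde, absorbance 480 nm. EC50 from a four-parameter fit normalized to −/+IFNγ controls; geometric mean of at least four runs.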
For NC(=O)CNc1nc2c(F)c(F)cc(/C(=N/O)Nc3ccc(F)c(Cl)c3)c2[nH]1 [Example 294, 2-((7-(N-(3-chloro-4-fluorophenyl)-N′-hydroxycarbamimidoyl)-4,5-difluoro-1H-benzo[d]imidazol-2-yl)amino)acetamide], the pEC50 was 5.00. With OCCNc1nc2c(F)c(F)cc(/C(=N/O)Nc3ccc(F)c(Cl)c3)c2[nH]1 [Example 295, N-(3-chloro-4-fluorophenyl)-4,5-difluoro-N′-hydroxy-2-((2-hydroxyethyl)amino)-1H-benzo[d]imidazole-7-carboximidamide] the pEC50 was 5.49. In the case of O/N=C(\Nc1ccc(F)c(Cl)c1)c1cc(F)c(F)c2nc(NC3CC(O)C3)[nH]c12 (stereo not shown) [Example 296, N-(3-chloro-4-fluorophenyl)-4,5-difluoro-N′-hydroxy-2-((3-hydroxycyclobutyl)amino)-1H-benzo[d]imidazole-7-carboximidamide], the pEC50 was < 5.00. With O/N=C(\Nc1ccc(F)c(Cl)c1)c1cc(F)c(F)c2nc(NCCCNc3ccccn3)[nH]c12 [Example 297, N-(3-chloro-4-fluorophenyl)-4,5-difluoro-N′-hydroxy-2-((3-(pyridin-2-ylamino)propyl)amino)-1H-benzo[d]imidazole-7-carboximidamide] the pEC50 was 5.94. NS(=O)(=O)CCNc1nc2c(F)c(F)cc(/C(=N/O)Nc3ccc(F)c(Cl)c3)c2[nH]1 [Example 298, N-(3-chloro-4-fluorophenyl)-4,5-difluoro-N′-hydroxy-2-((2-sulfamoylethyl)amino)-1H-benzo[d]imidazole-7-carboximidamide] showed a pEC50 of 5.02. Cn1nccc1CNc1nc2c(F)c(F)cc(/C(=N/O)Nc3ccc(F)c(Cl)c3)c2[nH]1 [Example 299, N-(3-chloro-4-fluorophenyl)-4,5-difluoro-N′-hydroxy-2-(((1-methyl-1H-pyrazol-5-yl)methyl)amino)-1H-benzo[d]imidazole-7-carboximidamide] was tested, and the pEC50 was 5.46.

Same assay, conditions: HeLa cells, IFNγ-induced IDO1, kynurenine in supernatant, 48 hour incubation; geometric mean of a minimum of four determinations
O/N=C(\Nc1ccc(F)c(Cl)c1)c1cc(F)c(F)c2nc(NCCn3cccn3)[nH]c12 [Example 300, 2-((2-(1H-pyrazol-1-yl)ethyl)amino)-N-(3-chloro-4-fluorophenyl)-4,5-difluoro-N′-hydroxy-1H-benzo[d]imidazole-7-carboximidamide] showed a pEC50 of 5.45. Compound CN(C)C(=O)CNc1nc2c(F)c(F)cc(/C(=N/O)Nc3ccc(F)c(Cl)c3)c2[nH]1 [Example 301, 2-((7-(N-(3-chloro-4-fluorophenyl)-N′-hydroxycarbamimidoyl)-4,5-difluoro-1H-benzo[d]imidazol-2-yl)amino)-N,N-dimethylacetamide] has a pEC50 of 5.40. With CC(C)(O)Cc1nc2c(F)c(F)cc(/C(=N/O)Nc3ccc(F)c(Cl)c3)c2[nH]1 [Example 302, N-(3-chloro-4-fluorophenyl)-4,5-difluoro-N′-hydroxy-2-(2-hydroxy-2-methylpropyl)-1H-benzo[d]imidazole-7-carboximidamide] the pEC50 was < 5.00. Compound CN(C)CCCCNc1nc2c(F)c(F)cc(/C(=N/O)Nc3ccc(F)c(Cl)c3)c2[nH]1 [Example 303, N-(3-chloro-4-fluorophenyl)-2-((4-(dimethylamino)butyl)amino)-4,5-difluoro-N′-hydroxy-1H-benzo[d]imidazole-7-carboximidamide] has a pEC50 of 5.53. O/N=C(\Nc1ccc(F)c(Cl)c1)c1cc(F)c(F)c2nc(NCC3CCCNC3)[nH]c12 (stereo not shown) [Example 304, N-(3-chloro-4-fluorophenyl)-4,5-difluoro-N′-hydroxy-2-((piperidin-3-ylmethyl)amino)-1H-benzo[d]imidazole-7-carboximidamide] was tested, and the pEC50 was < 5.00. CN1CCCCC1Cc1nc2nccc(/C(=N/O)Nc3ccc(F)c(Cl)c3)c2[nH]1 (stereo not shown) [Example 305, N-(3-chloro-4-fluorophenyl)-N′-hydroxy-2-((1-methylpiperidin-2-yl)methyl)-1H-imidazo[4,5-b]pyridine-7-carboximidamide] gave a pEC50 of 5.46. For O/N=C(\Nc1cccc(Br)c1)c1ccnc2nc(NCCN3CCOCC3)[nH]c12 [Example 306, N-(3-bromophenyl)-N′-hydroxy-2-((2-morpholinoethyl)amino)-1H-imidazo[4,5-b]pyridine-7-carboximidamide], the pEC50 was 6.17. For COc1c(F)cc(/C(=N/O)Nc2ccc(F)c(Cl)c2)c2[nH]cnc12 [Example 307, N-(3-chloro-4-fluorophenyl)-5-fluoro-N′-hydroxy-4-methoxy-1H-benzo[d]imidazole-7-carboximidamide], the pEC50 was 6.68. O/N=C(\Nc1ccc(F)c(Cl)c1)c1ccnc2nc(CC3CCCCN3)[nH]c12 (stereo not shown) [Example 325, N-(3-chloro-4-fluorophenyl)-N′-hydroxy-2-(piperidin-2-ylmethyl)-1H-imidazo[4,5-b]pyridine-7-carboximidamide] was tested, and the pEC50 was < 5.00. For CC(CN(C)C)c1nc2nccc(/C(=N/O)Nc3ccc(F)c(Cl)c3)c2[nH]1 (stereo not shown) [Example 326, N-(3-chloro-4-fluorophenyl)-2-(1-(dimethylamino)propan-2-yl)-N′-hydroxy-1H-imidazo[4,5-b]pyridine-7-carboximidamide], the pEC50 was 5.39. Work on CNC(C)Cc1nc2nccc(/C(=N/O)Nc3ccc(F)c(Cl)c3)c2[nH]1 (stereo not shown) [Example 327, N-(3-chloro-4-fluorophenyl)-N′-hydroxy-2-(2-(methylamino)propyl)-1H-imidazo[4,5-b]pyridine-7-carboximidamide] yielded a pEC50 of 5.12. For CC(Cc1nc2nccc(/C(=N/O)Nc3ccc(F)c(Cl)c3)c2[nH]1)N(C)C (stereo not shown) [Example 328, N-(3-chloro-4-fluorophenyl)-2-(2-(dimethylamino)propyl)-N′-hydroxy-1H-imidazo[4,5-b]pyridine-7-carboximidamide], the pEC50 was 5.49. In the case of O/N=C(\Nc1ccc(F)c(Cl)c1)c1ccnc2nc(CC3CCCN3)[nH]c12 (stereo not shown) [Example 329, N-(3-chloro-4-fluorophenyl)-N′-hydroxy-2-(pyrrolidin-2-ylmethyl)-1H-imidazo[4,5-b]pyridine-7-carboximidamide], the pEC50 was 5.30. In the case of O/N=C(\Nc1cccc(Cl)c1)c1cc(F)c(F)c2nc(NCCN3CCCC3)[nH]c12 [Example 330, N-(3-chlorophenyl)-4,5-difluoro-N′-hydroxy-2-((2-(pyrrolidin-1-yl)ethyl)amino)-1H-benzo[d]imidazole-7-carboximidamide], the pEC50 was 6.38. O/N=C(\Nc1cccc(Br)c1)c1cc(F)c(F)c2nc(NCCN3CCCC3)[nH]c12 [Example 331, N-(3-bromophenyl)-4,5-difluoro-N′-hydroxy-2-((2-(pyrrolidin-1-yl)ethyl)amino)-1H-benzo[d]imidazole-7-carboximidamide] gave a pEC50 of 6.16. NCCNc1nc2c(F)c(F)cc(/C(=N/O)Nc3ccc(F)c(Cl)c3)c2[nH]1 [Example 333, 2-((2-aminoethyl)amino)-N-(3-chloro-4-fluorophenyl)-4,5-difluoro-N′-hydroxy-1H-benzo[d]imidazole-7-carboximidamide] gave a pEC50 of 5.86. Compound CC(=O)NCCNc1nc2c(F)c(F)cc(/C(=N/O)Nc3ccc(F)c(Cl)c3)c2[nH]1 [Example 334, N-(2-((7-(N-(3-chloro-4-fluorophenyl)-N′-hydroxycarbamimidoyl)-4,5-difluoro-1H-benzo[d]imidazol-2-yl)amino)ethyl)acetamide] has a pEC50 of 5.21. In the case of CS(=O)(=O)NCCNc1nc2c(F)c(F)cc(/C(=N/O)Nc3ccc(F)c(Cl)c3)c2[nH]1 [Example 335, N-(3-chloro-4-fluorophenyl)-4,5-difluoro-N′-hydroxy-2-((2-(methylsulfonamido)ethyl)amino)-1H-benzo[d]imidazole-7-carboximidamide], the pEC50 was < 5.00. With O=S(=O)(NCCNc1nc2c(F)c(F)cc(/C(=N/O)Nc3ccc(F)c(Cl)c3)c2[nH]1)C1CC1 [Example 336, N-(3-chloro-4-fluorophenyl)-2-((2-(cyclopropanesulfonamido)ethyl)amino)-4,5-difluoro-N′-hydroxy-1H-benzo[d]imidazole-7-carboximidamide] the pEC50 was < 5.00. COC(=O)NCCNc1nc2c(F)c(F)cc(/C(=N/O)Nc3ccc(F)c(Cl)c3)c2[nH]1 [Example 337, Methyl (2-((7-(N-(3-chloro-4-fluorophenyl)-N′-hydroxycarbamimidoyl)-4,5-difluoro-1H-benzo[d]imidazol-2-yl)amino)ethyl)carbamate] showed a pEC50 of 5.36. With NS(=O)(=O)NCCNc1nc2c(F)c(F)cc(/C(=N/O)Nc3ccc(F)c(Cl)c3)c2[nH]1 [Example 338, N-(3-chloro-4-fluorophenyl)-4,5-difluoro-N′-hydroxy-2-((2-(sulfamoylamino)ethyl)amino)-1H-benzo[d]imidazole-7-carboximidamide] the pEC50 was < 5.00. O=S(=O)(NCCNc1nc2c(F)c(F)cc(/C(=N/O)Nc3ccc(F)c(Cl)c3)c2[nH]1)c1ccccc1 [Example 339, N-(3-chloro-4-fluorophenyl)-4,5-difluoro-N′-hydroxy-2-((2-(phenylsulfonamido)ethyl)amino)-1H-benzo[d]imidazole-7-carboximidamide] was tested, and the pEC50 was < 5.00. With N#CCCNc1nc2c(F)c(F)cc(/C(=N/O)Nc3ccc(F)c(Cl)c3)c2[nH]1 [Example 340, N-(3-chloro-4-fluorophenyl)-2-((2-cyanoethyl)amino)-4,5-difluoro-N′-hydroxy-1H-benzo[d]imidazole-7-carboximidamide] the pEC50 was 5.75. With CCNC(=O)NCCNc1nc2c(F)c(F)cc(/C(=N/O)Nc3ccc(F)c(Cl)c3)c2[nH]1 [Example 341, N-(3-chloro-4-fluorophenyl)-2-((2-(3-ethylureido)ethyl)amino)-4,5-difluoro-N′-hydroxy-1H-benzo[d]imidazole-7-carboximidamide] the pEC50 was < 5.00. Work on O/N=C(\Nc1ccc(F)c(Cl)c1)c1cc(F)c(F)c2nc(NCc3ccccn3)[nH]c12 [Example 342, N-(3-chloro-4-fluorophenyl)-4,5-difluoro-N′-hydroxy-2-((pyridin-2-ylmethyl)amino)-1H-benzo[d]imidazole-7-carboximidamide] yielded a pEC50 of 5.07.
